Measurements from article PMC7663979, “Design of Novel 4-Aminobenzofuroxans and Evaluation of Their Antimicrobial and Anticancer Activity” (International Journal of Molecular Sciences, 2020).
Several values for one entry are separate records, joined by “and”; a condition that tells them apart may be missing. Equal entries are not always repeated. Where two headings read alike, the source gives them in different places. One block for each compound: values may come before it.

What was measured:
[1] = system: PANC-1; experiment: Cytotoxicity assay (Cytell Cell Viability BioApp), PANC-1; type: cell-based, human; details: for IC50: Homo sapiens, PANC-1, mean ± SD, three experiments; for SI PANC-1: selectivity index = IC50 normal cells (Chang liver) / IC50 cancer cells, n.s. = no selectivity
[2] = system: MCF7; experiment: Cytotoxicity assay (Cytell Cell Viability BioApp), MCF7; type: cell-based, human; details: for IC50: Homo sapiens, MCF7, mean ± SD, three experiments; for SI MCF7: selectivity index = IC50 normal cells (Chang liver) / IC50 cancer cells, n.s. = no selectivity
[3] = system: Chang Liver; experiment: Cytotoxicity assay (Cytell Cell Viability BioApp), normal Chang liver cells; type: cell-based; details: Homo sapiens, mean ± SD, three experiments, read-out: IC50 Chang Liver (normal cell line)
[4] = system: M-HeLa; experiment: Cytotoxicity assay (Cytell Cell Viability BioApp), M-HeLa; type: cell-based, human; details: for IC50: Homo sapiens, M-HeLa, mean ± SD, three experiments; for SI M-HeLa: selectivity index = IC50 normal cells (Chang liver) / IC50 cancer cells, n.s. = no selectivity
[5] = system: T98G; experiment: cells; type: cell-based, human; details: for IC50: Homo sapiens, T98G, read-out: IC50 T98G; for SI T98G: selectivity index = IC50 normal cells (Chang liver) / IC50 cancer cells, n.s. = no selectivity
[6] = system: M-HeLa cells; experiment: Mitochondrial membrane potential, JC-10, flow cytometry; type: cell-based, human; details: ≥ IC 50 concentrations
Experimental: (§1) Cell Culture. M-HeLa cells at 10^6 cells/ well in a final volume of 2 mL were seeded into 6-well plates. After 24 h of incubation, various concentrations of compounds 3c and 3f were added to wells.
The cells were harvested at 2000 rpm for 5 min and, then, washed twice with ice-cold PBS, followed by resuspension in JC-10 (10 µg/mL) and incubation at 37 °C for 10 min. After the cells were rinsed three times and suspended in PBS, the JC-10 fluorescence was observed by flow cytometry.

[7] = system: Vibrio aquamarinus DSM 26054; design: method as in PMID 31450696; details: control = 100%, data first published in ref 40, cited from earlier work
[8] = system: M-HeLa cells; experiment: Cell cycle analysis, propidium iodide, flow cytometry; type: cell-based, human; details: 15 μM, 24 h; control cells 34.28%
Experimental: as §1
The DNA content and cell-cycle distribution after […] were estimated by flow cytometry. Cell seeding, drug treatment and ethanol fixation were similar to cell proliferation assay. After washing with PBS, […] were suspended in 150 μL of PBS, then 0.5 mL phosphate-citrate buffer (0.05 M, pH = 4.0) was added and the suspension was incubated at room temperature for 5 min to facilitate the extraction of low molecular weight DNA. Following centrifugation the cells were resuspended in 150 μL DNA staining solution (20 μg/mL propidium iodide, 200 μg/mL […], and 0.1% Triton X-100) and incubated in the CO2 incubator (37 °C for 30 min). Cell cycle distribution was determined by fluorescence-activated cell sorting analysis of propidium iodide-stained ethanol-fixed cells using a Guava EasyCyte (Guava easyCyte, MERCK, Kenilworth, NJ, USA).

[9] = system: M-HeLa cells; experiment: Cell apoptosis analysis by flow cytometry (annexin V-Alexa Fluor 647 / propidium iodide); type: cell-based, human; details: 24 h
Experimental: as §1
Cell Apoptosis Analysis. The cells were harvested at 2000 rpm for 5 min and, then, washed twice with ice-cold PBS, followed by resuspension in binding buffer 100 μL. Next, the samples were incubated with 0.35 μL of annexin V-Alexa Fluor 647 and 0.1 μL of propidium iodide for 40 min at room temperature in the dark. Finally, the cells were analyzed by flow cytometry (Guava easyCyte, MERCK, Kenilworth, NJ, USA). The experiments were repeated three times.

Structure (SMILES): O=[N+]([O-])c1c(Cl)cc2c(no[n+]2[O-])c1NCCCN1CCOCC1 [Compound 5c, 6-chloro-4-((3-morpholinopropyl)amino)-5-nitrobenzofuroxan]
- IC50 [1]: 38 ± 2.9 µM
- SI PANC-1 [1]: >2.6
- IC50 [2]: > 100 µM
- SI MCF7 [2]: n.s.
- IC50 [3]: > 100 µM
- IC50 [4]: 49.3 ± 3.9 µM
- SI M-HeLa [4]: >2
- IC50 [5]: > 100 µM
- SI T98G [5]: n.s.
- intensity of red fluorescence (JC-10) compared to the control [6]: did not change significantly

Structure (SMILES): O=[N+]([O-])c1c(Cl)cc2c(no[n+]2[O-])c1N1CCCC1 [Compound 5g, 6-chloro-5-nitro-4-(pyrrolidin-1-yl)benzofuroxan]
- IC50 [1]: > 100 µM
- SI PANC-1 [1]: n.s.
- IC50 [2]: > 100 µM
- SI MCF7 [2]: n.s.
- IC50 [3]: > 100 µM
- IC50 [4]: > 100 µM
- SI M-HeLa [4]: n.s.
- IC50 [5]: > 100 µM
- SI T98G [5]: n.s.
- intensity of red fluorescence (JC-10) compared to the control [6]: did not change significantly

- melting point: 110 to 111 °C
Structure (SMILES): CC(C)c1ccc(Nc2c([N+](=O)[O-])cc([N+](=O)[O-])c3no[n+]([O-])c23)cc1 [Compound 6, 7-(4-isopropylphenylamino)-4,6-dinitrobenzofuroxan]

Structure (SMILES): O=[N+]([O-])c1c(Cl)cc2c(no[n+]2[O-])c1Nc1cccc(O)c1 [Compound 3f, 6-chloro-4-((3-hydroxyphenyl)amino)-5-nitrobenzofuroxan]
- IC50 [1]: > 100 µM
- SI PANC-1 [1]: n.s.
- IC50 [2]: 8.1 ± 0.7 µM
- SI MCF7 [2]: 8.0
- Biofilm Formation, % ([7]; compound concentration 1 × 10^−4 M): 98.97%
- Biofilm Formation, % ([7]; compound concentration 1 × 10^−5 M): 96.57%
- Biofilm Formation, % ([7]; compound concentration 1 × 10^−6 M): 43.56% and 43.56 * %
- Biofilm Formation, % ([7]; compound concentration 1 × 10^−7 M): 11.34% and 11.34 * %
- Biofilm Formation, % ([7]; compound concentration 1 × 10^−8 M): 9.31% and 9.31 * %
- Biofilm Formation, % ([7]; compound concentration 1 × 10^−9 M): 66.58%
- IC50 [3]: 64.4 ± 5.7 µM
- cells in G0/G1 phase (G1) [8]: 66.8%
- D—dead cells ([9]; 10 μM): 5.03%
- Ea—early apoptotic cells ([9]; 10 μM): 14.46%
- La—late apoptotic cells ([9]; 10 μM): 12.79%
- L—living cells ([9]; 10 μM): 67.72%
- D—dead cells ([9]; 15 μM): 8.16%
- Ea—early apoptotic cells ([9]; 15 μM): 17.59%
- La—late apoptotic cells ([9]; 15 μM): 16.83%
- L—living cells ([9]; 15 μM): 57.42%
- IC50 [4]: 16 ± 1.3 µM
- SI M-HeLa [4]: 4.0
- IC50 [5]: 59.8 ± 4.8 µM
- SI T98G [5]: 1.1
